In patent publication US5527820A, “Antibiotics having immunosuppressive activity, delaminomycins and processes for the production of the same” (priority 1992, dated 1996):
Values after ≈ are worked out from the molar mass of the structure shown.

Columns and labels:
Mouse leukemia P388D1 = assay: Inhibitory activity on proliferation of cancer cells; type: cell-based
Mouse leukemia EL-4 = assay: as above; type: cell-based; conditions: EL4
Pellicularia sasakii = assay: MIC, agar plate dilution method; type: cell-based; conditions: 27° C., 42 hours, nutrient agar containing glucose
Candida albicans 3147 = assay: MIC, agar plate dilution method; type: cell-based; conditions: 27° C., 42 hours, nutrient agar containing glucose
Candida krusei F-5 = assay: MIC, agar plate dilution method; type: cell-based; conditions: Pichia kudriavzevii, F5; 27° C., 42 hours, nutrient agar containing glucose
Piricularia oryzae = assay: microbe, parasite or virus in culture; type: cell-based; conditions: 42 h
[1] = system: delayed-type hypersensitivity (DTH); assay: Suppressive effect on delayed-type hypersensitivity (DTH) in mouse, oral; type: in vivo, mouse (CDF1); conditions: oral once a day, 0~4th day
Protocol: (§1) CDF1 mice were immunized by intravenously injecting sheep red blood cells (10^5 cells/mouse). On the 4th day after the immunization, sheep red blood cells (10^8 cells/mouse) were subcutaneously injected into the footpad of mice for the elicitation to cause a delayed-type hypersensitivity. Test compound was orally administered to the mice once a day from the 0 th day to the 4 th day after the immunization. On the 5th day after the elicitation, the thickness of the mouse footpad was measured to estimate the suppressive effect of the test compound on DTH. The suppressive effect of the test compound was evaluated in terms of the inhibition rate (%) as calculated according to the following equation:
(§2) Inhibition rate (%)=100-(T/C×100)
wherein T denotes the thickness of the footpad when the test compound was administered, but C denotes the thickness of the footpad when no test compounnd was administered.

[2] = system: Saccharomyces cerevisiae F-7; assay: MIC, agar plate dilution method; type: cell-based; conditions: F7, 27° C., 42 hours, nutrient agar containing glucose
[3] = system: Cryptococcus neoformans F-10; assay: MIC, agar plate dilution method; type: cell-based; conditions: F10, 27° C., 42 hours, nutrient agar containing glucose
[4] = system: Trichophyton asteroides 429; assay: MIC, agar plate dilution method; type: cell-based; conditions: 27° C., 42 hours, nutrient agar containing glucose
Candida tropicalis F-1 = assay: MIC, agar plate dilution method; type: cell-based; conditions: F1, 27° C., 42 hours, nutrient agar containing glucose
[5] = system: delayed-type hypersensitivity (DTH); assay: Suppressive effect on delayed-type hypersensitivity (DTH) in mouse, intraperitoneal; type: in vivo, mouse (CDF1); conditions: intraperitoneal once a day, 0-4th day
Text: Suppressive effect of delaminomycins on delayed-type hypersensitivity (DTH) in mouse
as §1, with “hypersensitivity (DTH).” for “hypersensitivity.”, “intraperitoneally” for “orally”, “0th” for “0 th”, “4th” for “the 4 th”, “elicitation” for “elicitation,”, “the DTH response.” for “DTH.”
as §2
wherein T denotes the thickness of the footpad when administering the test compound, but C denotes the thickness of the footpad when administering no test compound.

[6] = system: Trichophyton mentagrophytes F-15 (833); assay: MIC, agar plate dilution method; type: cell-based; conditions: 27° C., 42 hours, nutrient agar containing glucose
[7] = system: nylon wool-passed cells of spleen cells (responder cell; T cells); assay: Inhibitory activity to the mixed lymphocyte culture reaction; type: cell-based, rat (Fischer F344 responder; WKY stimulator)
Candida Yu-1200 = assay: MIC, agar plate dilution method; type: cell-based; conditions: YU1200, 27° C., 42 hours, nutrient agar containing glucose
[8] = system: spleen cells (T cells activated by Concanavalin A); assay: Inhibitory activity against blastogenesis and proliferation of spleen cells caused by mitogen (Con A); type: cell-based, mouse (CDF1)
Mouse melanoma B-16 = assay: Inhibitory activity on proliferation of cancer cells; type: cell-based; conditions: B16
Mouse leukemia L-1210 = assay: as above; type: cell-based; conditions: L1210
Human Lymphoma Jurkat = assay: as above; type: cell-based
[9] = system: Candida pseudotropicalis F-2; assay: MIC, agar plate dilution method; type: cell-based; conditions: Kluyveromyces marxianus, F2; 27° C., 42 hours, nutrient agar containing glucose
[10] = in vivo
Gram-positive bacteria = assay: Antibacterial activity to Gram-positive bacteria; type: cell-based; conditions: result in words
Text: (§3) Delaminomycins A, B, C, A2, B2 and C2 according to this invention further have an antibacterial activity against a variety of bacteria. The minimum growth inhibitory concentrations (MIC) (μg/ml) of the novel antibiotics of this invention on various bacteria and fungi as measured by the agar plate dilution method are shown in Table 5a, Table 5b, Table 5c and Table 5d below.

Aspergillus niger F-16 = assay: MIC, agar plate dilution method; type: cell-based; conditions: F16, 27° C., 42 hours, nutrient agar containing glucose
Xanthomonas citri = assay: MIC, agar plate dilution method; type: cell-based; conditions: 27° C., 42 hours, nutrient agar containing glucose
Protocol: as §3
(§4) Evaluated after culturing at 27° C. for 42 hours in nutrient agar
(§5) medium containing glucose.

Cochliobolus miyabeanus = assay: MIC, agar plate dilution method; type: cell-based; conditions: Bipolaris oryzae; 27° C., 42 hours, nutrient agar containing glucose
Protocol: as §3, §4, §5

## CCC(O)C(C)/C=C/C=C/C1CC2C=CC3CC(C)CC(C)C3C2(C)C(=O)C12C(=O)NC(O)C2=O (stereo not drawn) [Delaminomycin A2]
Mouse leukemia P388D1
  IC50: 10 µg/mL (≈ 20.7 µM)
Mouse leukemia EL-4
  IC50: 4.1 µg/mL (≈ 8.48 µM)
Pellicularia sasakii
  MIC: > 50 µg/mL
Candida albicans 3147
  MIC: > 100 µg/mL
Candida krusei F-5
  MIC: > 100 µg/mL
Piricularia oryzae
  MIC: > 100 µg/mL
[1]; 0.5 mg/mouse
  Inhibition rate (DTH footpad thickness): 7.7%
[1]; 2.0 mg/mouse
  Inhibition rate (DTH footpad thickness): 23.4%
[1]; 8.0 mg/mouse
  Inhibition rate (DTH footpad thickness): 36.1%
[2]
  MIC: > 100 µg/mL
[3]
  MIC: > 100 µg/mL
[4]
  MIC: > 100 µg/mL
Candida tropicalis F-1
  MIC: > 100 µg/mL
[5]; 15.6 μg/mouse
  Inhibition rate (DTH footpad thickness): 1.9%
[5]; 62.5 μg/mouse
  Inhibition rate (DTH footpad thickness): 3.5%
[5]; 250 μg/mouse
  Inhibition rate (DTH footpad thickness): 26.6%
[5]; 1000 μg/mouse
  Inhibition rate (DTH footpad thickness): 99.3%
[6]
  MIC: > 100 µg/mL
[7]; Rattus norvegicus, T-cell, 0.10 μg/ml test compound, read-out: Inhibition rate
  inhibition at 0.1 µg/mL: 16%
[7]; Rattus norvegicus, T-cell, 0.39 μg/ml test compound, read-out: Inhibition rate
  inhibition at 0.39 µg/mL: 5%
[7]; Rattus norvegicus, T-cell, 1.56 μg/ml test compound, read-out: Inhibition rate
  inhibition at 1.56 µg/mL: 0%
[7]; Rattus norvegicus, T-cell, 25 μg/ml test compound, read-out: Inhibition rate
  inhibition at 25 µg/mL: 94%
[7]; Rattus norvegicus, T-cell, 100 μg/ml test compound, read-out: Inhibition rate
  inhibition at 100 µg/mL: 56%
[7]; Rattus norvegicus, T-cell, 120 hours, 3H-thymidine incorporation, read-out: IC50 (inhibition of mixed lymphocyte culture reaction)
  IC50: 13.9 µg/mL (≈ 28.7 µM)
[7]; in vitro, result in words
  activity to inhibit the proliferation of the T cells (responder cell) in mixed lymphocyte culture reaction: have an activity to inhibit the reaction of proliferation of the T cells
Candida Yu-1200
  MIC: > 100 µg/mL
[8]; Mus musculus, T-cell, read-out: IC50 (inhibition of blastogenesis and proliferation of spleen lymphocyte caused by Con A)
  IC50: 0.78 µg/mL (≈ 1.61 µM)
[8]; Mus musculus, T-cell, 0.20 μg/ml test compound, read-out: Inhibition rate
  inhibition at 0.2 µg/mL: 1.5%
[8]; Mus musculus, T-cell, 0.78 μg/ml test compound, read-out: Inhibition rate
  inhibition at 0.78 µg/mL: 50.5%
[8]; Mus musculus, T-cell, 3.1 μg/ml test compound, read-out: Inhibition rate
  inhibition at 3.1 µg/mL: 76.3%
[8]; Mus musculus, T-cell, 12.5 μg/ml test compound, read-out: Inhibition rate
  inhibition at 12.5 µg/mL: 95.1%
[8]; Mus musculus, T-cell, 50 μg/ml test compound, read-out: Inhibition rate
  inhibition at 50 µg/mL: 96.5%
[8]; in vitro, result in words
  activity inhibitory to the reaction of proliferation of mouse spleen cells activated with Concanavalin A: exhibit an activity inhibitory to the reaction of proliferation of mouse spleen cells
Mouse melanoma B-16
  IC50: 8.3 µg/mL (≈ 17.2 µM)
Mouse leukemia L-1210
  IC50: 3.7 µg/mL (≈ 7.65 µM)
Human Lymphoma Jurkat
  IC50: 5.9 µg/mL (≈ 12.2 µM)
[9]
  MIC: > 100 µg/mL
[10]
  absorption into the digestive tracts / oral absorption: hardly absorbed into the digestive tracts
Gram-positive bacteria
  antibacterial activity to Gram-positive bacteria: antibacterial activity to Gram-positive bacteria
Aspergillus niger F-16
  MIC: > 100 µg/mL
Xanthomonas citri
  MIC: > 100 µg/mL
Cochliobolus miyabeanus
  MIC: > 100 µg/mL
